Columns and labels:
Aurora kinase A (AKA) [1] = molecular target: T1, Aurora kinase A (AKA) (Homo sapiens, UniProt O14965); experiment: Kinase-Glo in vitro kinase inhibition assay with recombinant AKA; type: biochemical
T1 construct: gene AURKA; recombinant AKA
T1 sequence (O14965 1-403): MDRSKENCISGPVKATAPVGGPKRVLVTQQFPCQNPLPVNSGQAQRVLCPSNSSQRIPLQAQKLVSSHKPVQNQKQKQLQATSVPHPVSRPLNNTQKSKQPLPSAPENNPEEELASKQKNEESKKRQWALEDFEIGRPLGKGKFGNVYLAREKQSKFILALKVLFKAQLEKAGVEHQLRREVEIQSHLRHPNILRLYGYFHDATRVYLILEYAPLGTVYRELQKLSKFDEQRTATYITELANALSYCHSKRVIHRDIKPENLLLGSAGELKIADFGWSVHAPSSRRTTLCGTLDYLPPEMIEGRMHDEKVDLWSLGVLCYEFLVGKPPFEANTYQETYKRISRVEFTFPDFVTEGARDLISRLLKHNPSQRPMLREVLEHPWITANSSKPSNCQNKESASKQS

Aurora kinase A (AKA) [2] = molecular target: T1, Aurora kinase A (AKA); experiment: Kinase-Glo in vitro kinase inhibition assay with recombinant AKA; also photoaffinity labeling with PD/WB and IP in HeLa cells; type: biochemical

IC50 (Aurora kinase A (AKA) [1])	IC50 (Aurora kinase A (AKA) [2])	Structure (SMILES)
23.3 ± 0.5 nM	–	C#CCNC(=O)c1ccc(Nc2ncc3c(n2)-c2ccc(Cl)cc2C(c2c(F)cccc2OC)=NC3)cc1OC [MLN-1]
–	15.1 ± 0.5 nM	C#CCCC1(CCNC(=O)c2ccc(Nc3ncc4c(n3)-c3ccc(Cl)cc3C(c3c(F)cccc3OC)=NC4)cc2OC)N=N1 [MLN-2]
67.2 ± 0.4 nM	–	COc1cc(Nc2ncc3c(n2)-c2ccc(Cl)cc2C(c2c(F)cccc2OC)=NC3)ccc1C(=O)NCCNC(=O)OC1CC/C=C/CCC1 (stereo not drawn) [MLN-3]

From paper PMC4290084, “Multiplex Imaging and Cellular Target Identification of Kinase Inhibitors via an Affinity-Based Proteome Profiling Approach” (Scientific Reports, 2015)
